Results: publication PMC3543424, “Antitumor Activity of Antimicrobial Peptides Containing CisoDGRC in CD13 Negative Breast Cancer Cells” (PLoS ONE, 2013)
*1 amine or outer side, *2 acyl side, *3 side chain or, on linkers, in order; H or OH if unused. Where a SMILES comes first, the peptide text is derived from it. Bridges are numbered along the chain shown (N, C = ends). [ ]: non-standard residue; d: D form. βAsp = O=C(O)[C@H](CC(=O)[*:2])N[*:1]

Key:
HFF = conditions: MTT, 24 h
lung and liver = test system: lung and liver; set-up: species or system BALB/cnu-nu athymic nude mice; conditions: mouse, in vivo, iv, 4 mg/kg
Excerpt: Terminal deoxynucleotidyl teansferase-mediated dUTP nick end-labeling (TUNEL) were examined in the lung and liver using TdT In Situ Apoptosis Detection Kit (Trevigen, Gaithersburg, Maryland, USA) following the manufacturer's protocols. Apoptosis cells were identified as having brown nuclei under a light microscope. The number of apoptosis cells was counted in five random fields (×400) in a blinded manner.

MCF-7 cells [1] = assay type: cell-based, human
Procedure: (§1) The MCF-7 and MDA-MB-231 cells were cultured in 96-well plates at a density of 5×10^4 cells/well. CDAK and CRLK were added to different wells, ranging from 10 µg/ml to 200 µg/ml, respectively. After 24 h, 48 h and 72 h, 3-[4,5-dimethylthiazol- 2-yl]-2,5-diphenyltetrazolium bromide (MTT; Sigma-Aldrich, St. Louis, MO, USA) was added to each well and incubated for 4 h. The MTT was dissolved in 200 µL of Dimethyl sulfoxide (DMSO). Absorbance was detected using a microplate reader at 490 nm. Wells without peptides were used to control cell viability, representing 100% cell survival. Wells without cells were used for the blank of the spectrophotometer.

MDA-MB-231 cells [2] = assay type: cell-based, human
Procedure: as §1

HUVEC = conditions: MTT, 24 h
MDA-MB-231 xenograft [3] = assay: Tumor angiogenesis, anti-CD105 immunohistochemistry (microvessel density); assay type: in vivo, BALB/cnu-nu athymic nude mice; conditions: 4 mg/kg intravenously, tumor sections, P<0.05
Procedure: Tumor-bearing athymic nude mice were sacrificed and the weights of the tumors were recorded. The tumor tissue, liver as well as lung tissues of mice were paraffin-embedded. The tumor paraffin sections were incubated for 10 minutes with 3% H2O2 deionized water to eliminate the endogenous peroxidase activity, washed in PBS three times for five minutes, 5% goat serum was added for 15 minutes, then incubated with mouse monoclonal CD105 antibody (Abcam, Cambridge, UK) at 4°C overnight and washed with PBS three times for five minutes. The biotin-labeled goat anti-mouse IgG were incubated with sections at 37°C for 15 minutes, and then the sections were washed by PBS three times for five minutes. Horseradish peroxidase-avidin enzyme working solution was added at 37°C for 15 minutes and washed with PBS. DAB was added to develop the color, and the nuclei were counterstained mildly with hematoxylin. The liver and lung paraffin sections were stained with hemaetoxylin and eosin (HE) and were independently evluated by two pathologists.

MCF-7 cells [4] = assay: Cell cycle, BrdU/PI flow cytometry; assay type: cell-based, human; conditions: MCF-7, 24 h, CDAK 190 µg/ml, CRLK 200 µg/ml
Procedure: (§2) After being incubated with CDAK (190 µg/ml and 212 µg/ml), CRLK (200 µg/ml) and control (PBS) for 24 h, 20 µM BrdU (Sigma-Aldrich, St. Louis, MO, USA) was added to the media for 30 min. Cells were harvested and fixed in iced-cold 75% ethanol for 24 h. Then, the cells were treated with 4N HCL, neutralized by 0.1 M borax, and washed with PBS containing 0.05% bovine serum albumin (BSA). The cells were incubated sequentially with anti-BrdU antibody (santa cruz biotechnology, California, US) and FITC-conjugate anti-mouse secondary antibody in the presence of 0.5%BSA and 0.5%Tween-20. Cells were added PI (50 µg/ml) and RNase A (50 µg/ml) for 20 minutes and analyzed by flow cytometry. Select a forward scatter (FSC) versus side scatter (SSC) window defined single cells and exclude cell doublets.

MDA-MB-231 cells [5] = assay: Cell cycle, BrdU/PI flow cytometry; assay type: cell-based, human; conditions: MDA-MB-231, 24 h, CDAK 212 µg/ml, CRLK 200 µg/ml
Procedure: as §2

MDA-MB-231 xenograft [6] = assay: MDA-MB-231 xenograft growth in athymic nude mice; assay type: in vivo, BALB/cnu-nu athymic nude mice; conditions: 4 mg/kg intravenously, three times a week for three weeks, five mice per group
Procedure: The experiment was approved by the Animal Care and Use Committee of Xi'an Jiaotong University. MDA-MB-231 cells (2×10^6) were injected subcutaneously into the right flank of 6- to 9-week-old female BALB/cnu-nu athymic nude mice (Shanghai Silaike Laboratory Animal Co., Ltd, Shanghai, China) weighing 18 to 20 g. When the tumor reached 60 mm^3 in size, the mice were randomized into three groups: (1) CDAK (4 mg/kg); (2) CRLK (4 mg/kg); and (3) saline (control). They were then injected intravenously (50 µL/injection) three times a week for three weeks. Tumor volume was measured three times a week using calipers to calculate the tumor size using the following formula: length×width^2×0.5. All values are expressed as the mean ± SD.
Tumor-bearing athymic nude mice were sacrificed and the weights of the tumors were recorded. The tumor tissue, liver as well as lung tissues of mice were paraffin-embedded. The tumor paraffin sections were incubated for 10 minutes with 3% H2O2 deionized water to eliminate the endogenous peroxidase activity, washed in PBS three times for five minutes, 5% goat serum was added for 15 minutes, then incubated with mouse monoclonal CD105 antibody (Abcam, Cambridge, UK) at 4°C overnight and washed with PBS three times for five minutes. […]

MCF-7 cells [7] = assay: DNA ladder (DNA fragmentation) assay; assay type: cell-based, human; conditions: MCF-7, 24 h; CDAK 190 µg/ml, CRLK 200 µg/ml; 1% agarose gel
Procedure: (§3) For DNA fragmentation analysis, DAN of cells which were treated with CDAK (190 µg/ml and 212 µg/ml), CRLK (200 µg/ml) and control (PBS) for 24 h were extracted using a selective apoptotic DNA ladder extraction KIT (Biomed Company, Beijing, China) and were analyzed using 1% agarose gels. DNA was visualized with ethidium bromide staining.

MDA-MB-231 cells [8] = assay: DNA ladder (DNA fragmentation) assay; assay type: cell-based, human; conditions: MDA-MB-231, 24 h; CDAK 212 µg/ml, CRLK 200 µg/ml; 1% agarose gel
Procedure: as §3

Compound	IC50 (peptide concentration that induces 50% inhibition of cell growth) (HFF)	apoptosis rate (%) in liver (lung and liver)	apoptosis rate (%) in lung (lung and liver)	concentration with significant cytotoxicity (MCF-7 cells [1])	IC50 (peptide concentration that induces 50% inhibition of cell growth) (MCF-7 cells [1]; MCF-7, MTT, 24 h)	concentration with significant cytotoxicity (MDA-MB-231 cells [2])	IC50 (peptide concentration that induces 50% inhibition of cell growth) (MDA-MB-231 cells [2]; MDA-MB-231, MTT, 24 h)	IC50 (peptide concentration that induces 50% inhibition of cell growth) (HUVEC)	inhibition of angiogenesis (microvessel density, anti-CD105) (MDA-MB-231 xenograft [3])	cells in S phase (MCF-7 cells [4])	cells in S phase (MDA-MB-231 cells [5])	tumor volume compared with control group (MDA-MB-231 xenograft [6])	formation of DNA nucleosome ladder (MCF-7 cells [7])	formation of DNA nucleosome ladder (MDA-MB-231 cells [8])
CC[C@H](C)[C@H](NC(=O)[C@H](CC(C)C)NC(=O)[C@H](CC(C)C)NC(=O)[C@@H]1CSSC[C@H](N)C(=O)N[C@H](C(=O)O)CC(=O)NCC(=O)N[C@@H](CCCNC(=N)N)C(=O)N1)C(=O)N[C@H](C(=O)N[C@@H](CCCCN)C(=O)N[C@@H](CC(C)C)C(=O)N[C@@H](C)C(=O)N[C@@H](CCCCN)C(=O)N[C@@H](CC(C)C)C(=O)N[C@@H](C)C(=O)N[C@@H](CCCCN)C(=O)N[C@@H](CCCCN)C(=O)N[C@@H](CC(C)C)C(=O)N[C@@H](C)C(=O)N[C@@H](CCCCN)C(=O)N[C@@H](CC(C)C)C(=O)N[C@@H](C)C(=O)N[C@@H](CCCCN)C(=O)O)[C@@H](C)CC [CDAK] (H-C[βAsp]GRCLLIIKLAKLAKKLAKLAK-OH; disulfide 1-5)	912 µg/mL	0.38%±0.14	0.16±0.02%	> 40000 ng/mL	190 µg/mL	> 40000 ng/mL	212 µg/mL	861 µg/mL						
CRDGCALKAIAKLKLKKLILALK [CRLK]		0.35%±0.23	0.17±0.01%						not	19.7%	23.3%	did not reach a statistically significance	no DNA ladder was detected	no DNA ladder was detected
